# Results from ChEMBL document CHEMBL1142979, “Nonprenylated rotenoids, a new class of potent breast cancer resistance protein inhibitors” (J Med Chem, 2007).
# Target: T1, Broad substrate specificity ATP-binding cassette transporter ABCG2 (Homo sapiens, UniProt Q9UNQ0)
# T1 sequence (Q9UNQ0 whole entry): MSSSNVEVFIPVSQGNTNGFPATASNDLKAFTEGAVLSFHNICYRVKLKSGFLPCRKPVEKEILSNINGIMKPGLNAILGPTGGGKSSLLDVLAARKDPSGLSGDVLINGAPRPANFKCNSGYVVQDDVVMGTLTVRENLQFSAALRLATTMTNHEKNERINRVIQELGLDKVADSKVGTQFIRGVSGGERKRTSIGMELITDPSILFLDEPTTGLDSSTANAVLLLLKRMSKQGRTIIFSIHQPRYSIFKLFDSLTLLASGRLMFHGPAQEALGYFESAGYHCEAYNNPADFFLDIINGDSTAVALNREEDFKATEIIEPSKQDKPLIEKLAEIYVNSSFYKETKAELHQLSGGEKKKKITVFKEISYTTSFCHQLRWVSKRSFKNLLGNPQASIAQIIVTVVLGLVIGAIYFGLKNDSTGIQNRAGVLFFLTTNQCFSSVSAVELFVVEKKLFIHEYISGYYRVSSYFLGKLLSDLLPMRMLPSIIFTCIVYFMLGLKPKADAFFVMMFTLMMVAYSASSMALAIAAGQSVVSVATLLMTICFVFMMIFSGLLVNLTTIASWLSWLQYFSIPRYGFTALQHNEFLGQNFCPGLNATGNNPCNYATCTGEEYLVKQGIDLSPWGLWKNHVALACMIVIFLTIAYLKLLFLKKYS
# Experiment: Inhibition of BCRP expressed in human HEK293 cells assessed as maximal mitoxantrone accumulation at 10 uM relative control
# Format: cell-based
# Set-up: scale not given: the % may be the effect or the level left
# Conditions: hek293, 10 µM
row,Compound,Activity
1,COC1Oc2ccccc2-c2c1oc1cc(O)c(C)c(O)c1c2=O (stereo not drawn) [BOERAVINONE A],27%
2,Cc1c(O)cc2oc3c(c(=O)c2c1O)-c1ccccc1OC3O (stereo not drawn) [BOERAVINONE B],55%
3,COc1cc2c(c(O)c1C)C(=O)[C@]1(O)c3cccc(O)c3OC[C@H]1O2 [BOERAVINONE C],31%
4,Cc1c(O)cc2oc3c(c(=O)c2c1O)-c1ccc(O)cc1OC3O (stereo not drawn) [BOERAVINONE E],56%
5,O=c1c2c(oc3cc(O)cc(O)c13)C(O)Oc1ccccc1-2 (stereo not drawn) [COCCINEONE B],29%
6,COc1cc2c(c(O)c1OC)C(=O)[C@]1(O)c3ccccc3OC[C@H]1O2 [COCCINEONE E],15%

# Target: T2, BCRP (ABCG2) (Homo sapiens, UniProt Q9UNQ0)
# T2 sequence (Q9UNQ0 whole entry): T1 sequence (Q9UNQ0 whole entry)
# Experiment: Inhibition of BCRP expressed in human HEK293 cells assessed as maximal mitoxantrone accumulation at 20 uM relative control
# Format: cell-based
# Conditions: HEK293 cells that express BCRP, probe mitoxantrone, read-out: Activity
row,Compound,Emax at 20 µM
1,COc1cc2oc3c(c(=O)c2c(O)c1C)-c1cccc(O)c1OC3O (stereo not drawn) [9-O-METHYL-4-HYDROXYBOERAVINONE B],15%
2,COc1c(C)c(O)c2c(=O)c3c(oc2c1O)C(O)Oc1ccccc1-3 (stereo not drawn) [BOERAVINONE I],12%
3,Cc1c(O)cc2oc3oc4cc(O)ccc4c3c(=O)c2c1O [BOERAVINONE J],15%

# Target: T1, Broad substrate specificity ATP-binding cassette transporter ABCG2
# Experiment: Inhibition of BCRP expressed in human HEK293 cells assessed as maximal mitoxantrone accumulation
# Format: cell-based
# Conditions: not given
row,Compound,IC50
1,COc1cc(O)c2c(=O)c3c(oc2c1)C(OC)Oc1c(O)cccc1-3 (stereo not drawn) [BOERAVINONE G],700 nM
2,COc1cc2oc3c(c(=O)c2c(O)c1C)-c1cccc(O)c1OC3OC (stereo not drawn) [BOERAVINONE H],2500 nM

# Target: T1, Broad substrate specificity ATP-binding cassette transporter ABCG2
# Experiment: Inhibition of BCRP expressed in human HEK293 cells assessed as maximal mitoxantrone accumulation at 5 uM relative control
# Format: cell-based
# Set-up: scale not given: the % may be the effect or the level left
# Conditions: hek293, 5 µM
row,Compound,Activity
1,COc1cc(O)c2c(=O)c3c(oc2c1)C(OC)Oc1c(O)cccc1-3 (stereo not drawn) [BOERAVINONE G],92%
2,COc1cc2oc3c(c(=O)c2c(O)c1C)-c1cccc(O)c1OC3OC (stereo not drawn) [BOERAVINONE H],68%
